Source: patent publication US8309718B2, “4-pyrazolyl-N-arylpyrimidin-2-amines and 4-pyrazolyl-N-heteroarylpyrimidin-2-amines as janus kinase inhibitors” (Incyte Corporation, priority 2007, dated 2012)

target: T1, human JAK2 (Homo sapiens, UniProt O60674); assay: In vitro JAK kinase assay (HTRF, phosphorylation of biotinylated peptide); type: biochemical; conditions: catalytic domain a.a. 828-1132, 30 μM ATP, 500 nM peptide, room temperature 1 hr; read-out: JAK-2 IC50
T1 construct: JAK2 (a.a. 828-1132); His tag (N); made in house; host or cells: insect cells (baculovirus)
T1 sequence (O60674 828-1132): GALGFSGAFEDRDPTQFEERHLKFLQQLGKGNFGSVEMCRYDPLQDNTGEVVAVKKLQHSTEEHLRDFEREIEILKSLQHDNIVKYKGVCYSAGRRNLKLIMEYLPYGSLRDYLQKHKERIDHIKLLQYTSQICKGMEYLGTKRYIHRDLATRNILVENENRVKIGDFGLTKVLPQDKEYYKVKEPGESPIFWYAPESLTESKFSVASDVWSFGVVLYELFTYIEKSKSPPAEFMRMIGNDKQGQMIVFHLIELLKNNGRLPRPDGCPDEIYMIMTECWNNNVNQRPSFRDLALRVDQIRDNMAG
Method in brief: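 IC50 from HTRF detection (Eu-Py20 antibody, SA-APC) of biotinylated-peptide phosphorylation (500 nM), run 1 h at RT. Enzyme: N-His human JAK2 kinase domain a.a. 828-1132 from insect cells; ATP 30 μM; buffer 50 mM Tris pH 7.8 with NaCl, DTT, BSA.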

IC50, < 100 nM:
COc1cnc(Nc2cccc(C(=O)N3CCC(OC)CC3)c2)nc1-c1cnn(C(CC#N)C2CC2)c1 (racemic) [Example 330, 3-cyclopropyl-3-{4-[5-methoxy-2-({3-[(4-methoxypiperidin-1-yl)carbonyl]phenyl}amino)pyrimidin-4-yl]-1H-pyrazol-1-yl}propanenitrile]
CN(C)C(=O)c1ccc(Nc2nccc(-c3cnn(C(CC#N)C4CCCC4)c3)n2)cc1 (racemic) [Example 40, 4-(4-(1-(2-cyano-1-cyclopentylethyl)-1H-pyrazol-4-yl)pyrimidin-2-ylamino)-N,N-dimethylbenzamide]
N#CCC(C1CCCC1)n1cc(-c2ccnc(Nc3ccc(C(=O)N4CC[C@@H](O)C4)cc3)n2)cn1 (mixture of isomers) [Example 127, 3-cyclopentyl-3-(4-(2-(4-((R)-3-hydroxypyrrolidine-1-carbonyl)phenylamino)pyrimidin-4-yl)-1H-pyrazol-1-yl)propanenitrile]
N#CCC(C1CCCC1)n1cc(-c2ccnc(Nc3cccc(C(=O)N4CCC(Cc5cccnc5)CC4)c3)n2)cn1 (racemic) [Example 144, 3-cyclopentyl-3-(4-(2-(3-(4-(pyridin-3-ylmethyl)piperidine-1-carbonyl)phenylamino)pyrimidin-4-yl)-1H-pyrazol-1-yl)propanenitrile]
CN(C)C(=O)c1ccc(Nc2nccc(-c3cnn(C4(CC#N)CCN(S(=O)(=O)C5CC5)CC4)c3)n2)cc1 [Example 32, 4-(4-(1-(4-(cyanomethyl)-1-(cyclopropylsulfonyl)piperidin-4-yl)-1H-pyrazol-4-yl)pyrimidin-2-ylamino)-N,N-dimethylbenzamide]
COc1cccc([C@@H](C)NC(=O)c2cccc(Nc3nccc(-c4cnn(C(CC#N)C5CCCC5)c4)n3)c2)c1 (mixture of isomers) [Example 145, 3-(4-(1-(2-cyano-1-cyclopentylethyl)-1H-pyrazol-4-yl)pyrimidin-2-ylamino)-N—((R)-1-(3-methoxyphenyl)ethyl)benzamide]
N#CCC(CC1CCN(C(=O)c2ccc(F)cc2F)CC1)n1cc(-c2ccnc(Nc3ccc(-n4ccnc4)cc3)n2)cn1 (racemic) [Example 1, 3-(4-(2-(4-(1H-imidazol-1-yl)phenylamino)pyrimidin-4-yl)-1H-pyrazol-1-yl)-4-(1-(2,4-difluorobenzoyl)piperidin-4-yl)butanenitrile]
Cc1nc(-c2ccc(S(=O)(=O)Nc3ccc(Nc4nccc(-c5cnn(C(CC#N)C6CCCC6)c5)n4)cc3)s2)cs1 (racemic) [Example 193, N-(4-(4-(1-(2-cyano-1-cyclopentylethyl)-1H-pyrazol-4-yl)pyrimidin-2-ylamino)phenyl)-5-(2-methylthiazol-4-yl)thiophene-2-sulfonamide]
N#CCC(C1CCCC1)n1cc(-c2ccnc(Nc3ccc(NC(=O)CN4CCNC(=O)C4)cc3)n2)cn1 (racemic) [Example 206, N-(4-(4-(1-(2-cyano-1-cyclopentylethyl)-1H-pyrazol-4-yl)pyrimidin-2-ylamino)phenyl)-2-(3-oxopiperazin-1-yl)acetamide]
N#CCC1(n2cc(-c3ccnc(Nc4ccc(S(=O)(=O)N5CCOCC5)cc4)n3)cn2)CC(C#N)C1 (single isomer, unassigned) [Example 344, 3-(cyanomethyl)-3-[4-(2-{[4-(morpholin-4-ylsulfonyl)phenyl]amino}pyrimidin-4-yl)-1H-pyrazol-1-yl]cyclobutanecarbonitrile]
Cc1cc(CNC(=O)c2cccc(Nc3nccc(-c4cnn(C(CC#N)C5CCCC5)c4)n3)c2)no1 (racemic) [Example 148, 3-(4-(1-(2-cyano-1-cyclopentylethyl)-1H-pyrazol-4-yl)pyrimidin-2-ylamino)-N-((5-methylisoxazol-3-yl)methyl)benzamide]
N#CCC(C1CCCC1)n1cc(-c2ccnc(Nc3ccc(C(=O)N4CCC4)cc3)n2)cn1 (racemic) [Example 128, 3-(4-(2-(4-(azetidine-1-carbonyl)phenylamino)pyrimidin-4-yl)-1H-pyrazol-1-yl)-3-cyclopentylpropanenitrile]
N#CCC1(n2cc(-c3ccnc(Nc4cccc(-c5cnco5)c4)n3)cn2)CN(S(=O)(=O)C2CC2)C1 [Example 18, 2-(1-(cyclopropylsulfonyl)-3-(4-(2-(3-(oxazol-5-yl)phenylamino)pyrimidin-4-yl)-1H-pyrazol-1-yl)azetidin-3-yl)acetonitrile]
Cn1ccc(S(=O)(=O)N2CCC(CC(CC#N)n3cc(-c4ccnc(Nc5ccc(-n6cccn6)cc5)n4)cn3)CC2)n1 (racemic) [Example 56, 3-(4-(2-(4-(1H-pyrazol-1-yl)phenylamino)pyrimidin-4-yl)-1H-pyrazol-1-yl)-4-(1-(1-methyl-1H-pyrazol-3-ylsulfonyl)piperidin-4-yl)butanenitrile]
CCOC(=O)N1CCC(NC(=O)c2ccc(Nc3nccc(-c4cnn(C5(CC#N)CN(S(=O)(=O)CC)C5)c4)n3)cc2)CC1 [Example 284, Ethyl 4-(4-(4-(1-(3-(cyanomethyl)-1-(ethylsulfonyl)azetidin-3-yl)-1H-pyrazol-4-yl)pyrimidin-2-ylamino)benzamido)piperidine-1-carboxylate]
Cc1cccc(S(=O)(=O)Nc2ccc(Nc3nccc(-c4cnn(C(CC#N)C5CCCC5)c4)n3)cc2)n1 (racemic) [Example 194, N-(4-(4-(1-(2-cyano-1-cyclopentylethyl)-1H-pyrazol-4-yl)pyrimidin-2-ylamino)phenyl)-6-methylpyridine-2-sulfonamide]
Cc1cnc(Nc2ccc(C(N)=O)cc2)nc1-c1cnn(C(CC#N)CC2CCN(S(=O)(=O)c3ccn(C)n3)CC2)c1 (racemic) [Example 53, 4-(4-(1-(1-cyano-3-(1-(1-methyl-1H-pyrazol-3-ylsulfonyl)piperidin-4-yl)propan-2-yl)-1H-pyrazol-4-yl)-5-methylpyrimidin-2-ylamino)benzamide]
N#CCC1(n2cc(-c3ccnc(Nc4ccc(S(=O)(=O)N5CCOCC5)cc4)n3)cn2)CCN(C(=O)c2ccno2)CC1 (racemic) [Example 15, 2-(1-(isoxazole-5-carbonyl)-4-(4-(2-(4-(morpholinosulfonyl)phenylamino)pyrimidin-4-yl)-1H-pyrazol-1-yl)piperidin-4-yl)acetonitrile]
N#CCC(C1CC1)n1cc(-c2ccnc(Nc3ccc(C(=O)NC4CCOCC4)cc3)n2)cn1 (racemic) [Example 254, 4-(4-(1-(2-cyano-1-cyclopropylethyl)-1H-pyrazol-4-yl)pyrimidin-2-ylamino)-N-(tetrahydro-2H-pyran-4-yl)benzamide]
Cc1cnc(Nc2ccccc2)nc1-c1cnn(C(CC#N)CC2CCN(C(=O)c3ccc(F)cc3F)CC2)c1 (racemic) [Example 66, 4-(1-(2,4-difluorobenzoyl)piperidin-4-yl)-3-(4-(5-methyl-2-(phenylamino)pyrimidin-4-yl)-1H-pyrazol-1-yl)butanenitrile]
